Experimental data: patent US20070270418A1, “Inhibitors of P38 and Methods of Using the Same” (priority 2003, published 2007)
Like-named read-outs stand apart in the source and are kept apart here.

What was measured:
p38β = molecular target: T1, p38β (Homo sapiens, UniProt Q15759); test: Kinase selectivity, ATF2 phosphorylation ELISA; format: biochemical
T1 construct: p38 MAP Kinases are recombinant human full-length proteins with an amino-terminal GST fusion; GST (N); purchased Upstate (Charlottesville, Va.); host or cells: E. coli
Experimental: All kinases and the substrate ATF2 are acquired from Upstate (Charlottesville, Va.). p38 MAP Kinases are recombinant human full-length proteins with an amino-terminal GST fusion, expressed in and purified from E. coli. ATF2 is a GST fusion protein containing amino acids 19-96 of human ATF2 expressed in E. coli. All proteins were aliquoted and stored at −80° C.
p38 MAP Kinase assays are performed using an assay buffer containing 25 mM HEPES, pH 7.5, 10 mM MgCl2, 2 mM DTT, 20 mM β-glycerophosphate, 0.1 mM Na3VO4, 40 μM ATP and 1.25 μM of ATF2, together with 6 ng of p38α protein, 12 ng p38β protein, 1.5 ng p38γ, or 0.4 ng JNK2α2. Compounds are serially diluted in DMSO and 2 μL of test compound at 25× final concentration is used. The vehicle control receives DMSO only. Test compounds are pre-incubated with 20 μl of enzyme in kinase buffer (25 mM HEPES, pH 7.5, 10 mM MgCl2, 2 mM DTT, 20 mM 3-glycerophosphate and 0.1 mM Na3VO4) at room temperature for 15 minutes. […] The reactions are incubated for 30 minutes at 37° C. and terminated by the addition of 18 μl of 200 mM EDTA. An ELISA method is used to measure the phosphorylation of ATF2 at Thr 69. High binding 96-well plates (Corning 3369) are coated with 50 μl of kinase reaction for 1 hour at 37° C. The coated plates are washed with 200 μl washing buffer (25 mM Tris HCl, pH 8.3, 192 mM glycine, 0.1% SDS and 0.05% Tween-20) three times. The plates are then washed three times with SuperBlock in TBS (Pierce, 37535). After blocking, plates are incubated with 50 μl of rabbit anti-phospho-ATF2 antibody (Cell Signaling, 9221 L, 1:500) for 30 minutes at 37° C. Plates are washed three times with washing buffer prior to incubation with 50 μl HRP-conjugated goat anti-rabbit antibody (Cell Signaling, 7074, 1:500) for 30 minutes at 37° C. Plates are then washed three times with washing buffer before incubation with 50 μl of Ultra TMB-ELISA (Pierce, 34028) for 8 minutes at room temperature. Finally, 50 μl of phosphoric acid (1 M) is added to stop reactions and plate absorbance is read at 450 nm on a SpectraMax 250 plate reader.
A selectivity panel is used to test the cross-reactivity of compounds of the invention with the β and γ isoforms of p38 MAP kinase, Src^p60 and JNK2α2. The p38β, p38γ, and JNK2α2 assays are described in Example 4. The Src^p60 assay measures the ability of compounds to inhibit Src^p60-catalyzed phosphorylation of a peptide substrate.

CDK2/cyclinA = molecular target: T2, CDK2/cyclinA (Homo sapiens, UniProt P24941); test: Broad selectivity panel, 32P incorporation; format: biochemical; settings: 40 μM ATP, read-out: Percent inhibition CDK2/cyclinA; for inhibition at 0.1 µM: 0.1 μM compound; for inhibition at 1 µM: 1 μM compound
T2 construct: purchased Upstate (Charlottesville, Va.)
Experimental: (§1) Various compounds of the present invention are screened against a panel of 24 additional kinases (Upstate, Charlottesville, Va.). Compounds are tested 0.1 μM and 1 μM in reactions containing 40 μM ATP. Incorporation of radiolabeled phosphate (^32P) into each kinase substrate is measured in the presence and absence of test compound. Results are reported as the percent decrease in the amount of ^32P incorporated into the substrate in the presence of compound, compared to buffer control.

JNK3-His = molecular target: T3, JNK3-His (Homo sapiens, UniProt P53779); test: Broad selectivity panel, 32P incorporation; format: biochemical; settings: 40 μM ATP, read-out: Percent inhibition JNK3-His; for inhibition at 0.1 µM: 0.1 μM compound; for inhibition at 1 µM: 1 μM compound
T3 construct: His; purchased Upstate (Charlottesville, Va.)
Experimental: as §1

MAPK1 = molecular target: T4, MAPK1 (Homo sapiens, UniProt P27361); test: Broad selectivity panel, 32P incorporation; format: biochemical; settings: 40 μM ATP, read-out: Percent inhibition MAPK1; for inhibition at 0.1 µM: 0.1 μM compound; for inhibition at 1 µM: 1 μM compound
T4 construct: purchased Upstate (Charlottesville, Va.)
Experimental: as §1

MAPK2 = molecular target: T5, MAPK2 (Homo sapiens, UniProt P28482); test: Broad selectivity panel, 32P incorporation; format: biochemical; settings: 40 μM ATP, read-out: Percent inhibition MAPK2; for inhibition at 0.1 µM: 0.1 μM compound; for inhibition at 1 µM: 1 μM compound
T5 construct: purchased Upstate (Charlottesville, Va.)
Experimental: as §1

MEK1 = molecular target: T6, MEK1 (Homo sapiens, UniProt Q02750); test: Broad selectivity panel, 32P incorporation; format: biochemical; settings: 40 μM ATP, read-out: Percent inhibition MEK1; for inhibition at 0.1 µM: 0.1 μM compound; for inhibition at 1 µM: 1 μM compound
T6 construct: purchased Upstate (Charlottesville, Va.)
Experimental: as §1

[1] = system: collagen-induced arthritis in rats; test: In vivo established type II collagen arthritis study; design: species or system Female Lewis rats; settings: Rattus norvegicus, po, oral gavage bid, days 1-7 of arthritis
Experimental: Compounds are tested in the collagen-induced model of arthritis in rats. Female Lewis rats (0.16-0.2 kg) are injected subcutaneously at the base of the tail and two sites on the back on day 0 and 6 with 300 μl of Freund's Incomplete Adjuvant containing 2 mg/ml of Bovine Type II Collagen. On day 9 of the study, caliper measurements of both hind leg ankle joints are performed. This measurement is considered the normal, pre-disease measurement. When ankle swelling is clearly established in at least one hind paw (caliper measurement increase from 0.263 to 0.282 inches), rats are enrolled into the treatment phase of the study. This occurs on day 10 or 11 of the study and is considered to be day 1 of arthritis. Enrolled animals are randomized and administered vehicle control or compound (1, 3.3, 10, or 30 mg/kg, bid), unless otherwise indicated, or dexamethasone (0.0375 mg/kg, bid) via oral gavage on days 1-7 of arthritis (treatment days). Ankle diameters are measured on each day of treatment. Mean increases in ankle diameter for 7 lead compounds are shown below in FIGS. 3-9.
Following sacrifice on day 7, both hind paws are removed from each animal and weighed. Knees and ankles from all animals in all groups are preserved, decalcified in 5% formic acid and trimmed into two approximately equal longitudinal (ankles) or frontal (knees) halves, dehydrated, cleared, infiltrated, and embedded in paraffin. Blocks are sectioned and stained with Toluidine Blue.
Tissues are examined microscopically and scored for knee and ankle inflammation (cellular infiltration), pannus formation and infiltration, cartilage damage (loss of Toluidine staining and collagen disruption) and bone resorption. Scoring is on a scale from 0-5, where a score of 0 is normal and a score of 5 indicates severe damage or evidence of disease or both.

[2] = first column so headed (c3), read-out: ED50 summed ankle histology
[3] = second column so headed (c4), read-out: ED50 summed ankle histology

T6 sequence (Q02750 whole entry, species assumed): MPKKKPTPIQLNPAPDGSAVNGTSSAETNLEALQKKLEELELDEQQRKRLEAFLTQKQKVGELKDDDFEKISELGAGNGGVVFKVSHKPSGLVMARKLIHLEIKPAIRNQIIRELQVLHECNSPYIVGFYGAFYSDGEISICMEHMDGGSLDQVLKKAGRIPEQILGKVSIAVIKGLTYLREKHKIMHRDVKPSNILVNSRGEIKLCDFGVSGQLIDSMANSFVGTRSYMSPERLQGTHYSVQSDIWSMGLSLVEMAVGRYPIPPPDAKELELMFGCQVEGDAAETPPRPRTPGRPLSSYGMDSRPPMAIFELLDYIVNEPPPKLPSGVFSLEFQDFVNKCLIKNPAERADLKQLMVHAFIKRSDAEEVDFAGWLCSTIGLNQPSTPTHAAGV
T5 sequence (P28482 whole entry): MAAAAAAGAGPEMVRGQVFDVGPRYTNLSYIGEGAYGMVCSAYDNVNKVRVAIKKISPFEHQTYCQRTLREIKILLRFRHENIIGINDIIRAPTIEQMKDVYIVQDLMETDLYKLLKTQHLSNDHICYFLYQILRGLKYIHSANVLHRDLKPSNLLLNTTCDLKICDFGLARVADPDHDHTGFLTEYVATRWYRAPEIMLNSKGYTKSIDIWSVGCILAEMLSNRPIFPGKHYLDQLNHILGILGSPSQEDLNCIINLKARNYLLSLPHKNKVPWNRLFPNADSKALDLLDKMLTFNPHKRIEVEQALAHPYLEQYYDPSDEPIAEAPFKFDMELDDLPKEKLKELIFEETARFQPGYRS
T1 sequence (Q15759 whole entry, the tested form may be a part): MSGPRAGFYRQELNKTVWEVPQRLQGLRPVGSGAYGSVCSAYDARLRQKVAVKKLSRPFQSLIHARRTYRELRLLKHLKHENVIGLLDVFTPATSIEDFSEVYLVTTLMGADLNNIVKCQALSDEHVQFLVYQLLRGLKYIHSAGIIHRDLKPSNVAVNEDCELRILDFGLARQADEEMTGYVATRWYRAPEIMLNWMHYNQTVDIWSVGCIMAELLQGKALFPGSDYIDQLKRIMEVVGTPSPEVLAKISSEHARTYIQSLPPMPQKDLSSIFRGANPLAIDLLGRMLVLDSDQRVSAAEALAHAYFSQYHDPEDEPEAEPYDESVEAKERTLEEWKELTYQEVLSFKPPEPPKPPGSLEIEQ
T3 sequence (P53779 whole entry): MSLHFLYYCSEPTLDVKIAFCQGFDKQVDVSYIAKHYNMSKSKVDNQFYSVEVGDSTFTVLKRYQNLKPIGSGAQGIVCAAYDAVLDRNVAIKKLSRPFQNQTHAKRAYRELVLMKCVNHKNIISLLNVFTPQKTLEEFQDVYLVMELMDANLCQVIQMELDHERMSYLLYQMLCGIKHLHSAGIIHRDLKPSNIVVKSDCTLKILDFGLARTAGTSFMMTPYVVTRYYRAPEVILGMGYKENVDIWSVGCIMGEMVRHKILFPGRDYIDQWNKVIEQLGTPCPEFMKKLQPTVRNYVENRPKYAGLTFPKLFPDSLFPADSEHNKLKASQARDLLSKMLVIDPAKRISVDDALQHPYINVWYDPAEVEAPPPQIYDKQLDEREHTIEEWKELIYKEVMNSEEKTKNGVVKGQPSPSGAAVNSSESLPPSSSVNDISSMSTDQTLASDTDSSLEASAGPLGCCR
T4 sequence (P27361 whole entry): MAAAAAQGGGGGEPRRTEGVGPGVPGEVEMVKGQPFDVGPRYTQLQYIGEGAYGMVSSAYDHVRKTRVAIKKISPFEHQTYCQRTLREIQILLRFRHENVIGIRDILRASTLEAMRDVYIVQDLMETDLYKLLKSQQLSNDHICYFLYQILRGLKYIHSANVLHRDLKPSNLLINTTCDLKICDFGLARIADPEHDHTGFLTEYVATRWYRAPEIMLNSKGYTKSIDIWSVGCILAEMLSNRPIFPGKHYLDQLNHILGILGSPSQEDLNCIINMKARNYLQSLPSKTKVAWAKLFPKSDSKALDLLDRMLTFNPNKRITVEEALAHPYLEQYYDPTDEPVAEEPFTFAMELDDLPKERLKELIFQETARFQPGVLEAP

| inhibition at 0.1 µM (CDK2/cyclinA) | inhibition at 1 µM (CDK2/cyclinA) | inhibition at 0.1 µM (JNK3-His) | inhibition at 1 µM (JNK3-His) | inhibition at 0.1 µM (MAPK1) | inhibition at 1 µM (MAPK1) | inhibition at 0.1 µM (MAPK2) | inhibition at 1 µM (MAPK2) | inhibition at 0.1 µM (MEK1) | inhibition at 1 µM (MEK1) | SMILES | IC50 (p38β) | ED50 [1, 2] | ED50 ([1]; read-out: ED50 ankle diameter) | ED50 ([1]; read-out: ED50 paw weights) | ED50 [1, 3] | selectivity over p38β as compared to p38α (p38β) |
| --- | --- | --- | --- | --- | --- | --- | --- | --- | --- | --- | --- | --- | --- | --- | --- | --- |
| 24% | 65% | 97% | 101% | 29% | 79% | 14% | 43% | 7% | 11% | CS(=O)(=O)N1CCC(Nc2nccc(-c3c(-c4ccc(F)cc4)nc4occn34)n2)CC1 [CCLXXIX] | 1.8 nM | 4.29 mg/kg | 2.09 mg/kg | 2.57 mg/kg | 0.72 mg/kg | – |
| 1% | 20% | 78% | 100% | 25% | 63% | 18% | 42% | 6% | 13% | CC(=O)N1CCC(Nc2nccc(-c3c(-c4ccc(F)cc4)nc4occn34)n2)CC1 [CCLXXVIII] | 6.3 nM | 3.09 mg/kg | 2.04 mg/kg | 1.55 mg/kg | 1.24 mg/kg | – |
| 3% | 19% | 39% | 84% | 20% | 45% | -9% | 9% | 9% | 13% | Fc1ccc(-c2nc3occn3c2-c2ccnc(NC3CCNCC3)n2)cc1 [CCLXXX] | 95.4 nM | 7.6 mg/kg | 5.43 mg/kg | 3.51 mg/kg | 1.04 mg/kg | – |
| -1% | -1% | 19% | 56% | 7% | 15% | 10% | 7% | -1% | 2% | CN(C)CC(C)(C)CNc1nccc(-c2c(-c3ccc(F)cc3)nc3occn23)n1 [CXIX] | 288 nM | 2.64 mg/kg | 2.3 mg/kg | 3.75 mg/kg | 1.19 mg/kg | – |
| – | – | – | – | – | – | – | – | – | – | Fc1ccc(-c2nc3occn3c2-c2ccnc(NC3CN4CCC3CC4)n2)cc1 (centres unmarked) [LXXXIV] | 1290 nM | 2.6 mg/kg | 1.9 mg/kg | 2 mg/kg | 0.6 mg/kg | – |

| SMILES | inhibition at 0.1 µM (CDK2/cyclinA) | inhibition at 1 µM (CDK2/cyclinA) | inhibition at 0.1 µM (JNK3-His) | inhibition at 1 µM (JNK3-His) | inhibition at 0.1 µM (MAPK1) | inhibition at 1 µM (MAPK1) | inhibition at 0.1 µM (MAPK2) | inhibition at 1 µM (MAPK2) | inhibition at 0.1 µM (MEK1) | inhibition at 1 µM (MEK1) | IC50 (p38β) | ED50 [1, 2] | ED50 ([1]; read-out: ED50 ankle diameter) | ED50 ([1]; read-out: ED50 paw weights) | ED50 [1, 3] | selectivity over p38β as compared to p38α (p38β) |
| --- | --- | --- | --- | --- | --- | --- | --- | --- | --- | --- | --- | --- | --- | --- | --- | --- |
| CN1[C@@H]2CC[C@H]1C[C@@H](Nc1nccc(-c3c(-c4ccc(F)cc4)nc4occn34)n1)C2 [CCLXXXI] | -2% | 5% | 19% | 75% | 25% | 49% | 10% | 23% | -3% | 7% | 24.6 nM | 0.93 mg/kg | 0.98 mg/kg | 0.94 mg/kg | 0.2 mg/kg | – |
| Fc1ccc(-c2nc3occn3c2-c2ccnc(N[C@@H]3CN4CCC3CC4)n2)cc1 [LXXI] | 0% | 8% | -7% | 59% | 27% | 56% | -5% | 18% | 2% | 6% | 114 nM | – | – | – | – | – |
| Fc1ccc(-c2nc3occn3c2-c2ccnc(N[C@H]3CN4CCC3CC4)n2)cc1 [LXXXVII] | 1% | 0% | 19% | 61% | 12% | 27% | -4% | 14% | 3% | -1% | 150 nM | 2.07 mg/kg | 1.29 mg/kg | 1.88 mg/kg | 0.42 mg/kg | 17 fold |
